How the values were obtained:
mice = assay: Marble burying test (anxiety like or obsessive compulsive behaviour); assay type: in vivo; details: for number of marbles covered by sawdust, mean ± s.e.m.: 25 marbles, 30-minute test
Method: The method applied here follows that described by Broekkamp et al. (1986). Mice (n=15 per treatment group) were individually placed in transparent plastic cages (33×21×18 cm) with 5 cm of sawdust on the floor and 25 marbles (diameter 1 cm) grouped in the centre of the cage. A second, up-turned, cage served as a lid. The number of marbles covered by sawdust (by at least two-thirds) was counted at the end of the 30-minute test period. Tests were performed by investigators blind to the drug treatment protocol.
Prior to testing, all test cages and marbles were “impregnated” by leaving 10 naive mice in each cage for 15 minutes.
7-Geranyl-oxycoumarin was evaluated at 3, 10 and 30 mg/kg, administered i.p. 30 minutes before the test, and compared with a vehicle control group. 7-Geranyl-oxycoumarin was dissolved in a saline solution containing 3 weight-% DMSO and 3 weight-% Tween® 80 (so called “vehicle”). To the control group the vehicle consisting of the saline solution containing 3 weight-% DMSO and 3 weight-% Tween® 80 was administered intraperitonally. Fluoxetine (32 mg/kg), administered under the same experimental conditions, was used as a reference substance.
Data were analysed by comparing treated groups with vehicle control using unpaired Student's t-tests.

[1] = target: T1, human serotonin re-uptake transporter (hSERT) (Homo sapiens, UniProt P31645); assay: Labeled citalopram displacement from hSERT containing membranes (SPA); assay type: binding
T1 sequence (P31645 whole entry): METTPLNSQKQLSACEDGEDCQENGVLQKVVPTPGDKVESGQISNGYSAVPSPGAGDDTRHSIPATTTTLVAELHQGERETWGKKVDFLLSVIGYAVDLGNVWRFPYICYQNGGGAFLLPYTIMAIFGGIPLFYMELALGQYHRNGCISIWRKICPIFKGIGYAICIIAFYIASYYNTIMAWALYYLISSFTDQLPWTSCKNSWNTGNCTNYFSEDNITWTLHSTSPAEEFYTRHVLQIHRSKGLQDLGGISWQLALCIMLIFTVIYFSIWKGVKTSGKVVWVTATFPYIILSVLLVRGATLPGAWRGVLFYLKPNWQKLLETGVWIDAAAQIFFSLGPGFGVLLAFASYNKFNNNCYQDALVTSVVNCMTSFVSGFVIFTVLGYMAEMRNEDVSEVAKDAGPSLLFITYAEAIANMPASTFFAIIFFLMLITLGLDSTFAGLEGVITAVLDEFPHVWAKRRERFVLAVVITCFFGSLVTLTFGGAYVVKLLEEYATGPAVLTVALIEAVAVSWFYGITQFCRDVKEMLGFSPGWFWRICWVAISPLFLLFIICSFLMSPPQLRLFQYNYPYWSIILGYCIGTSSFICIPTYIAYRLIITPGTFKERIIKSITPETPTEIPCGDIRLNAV
Method: Membranes containing hSERT were prepared from the above cell line according to Galli et al, Journal of Experimental Biology 1995, 198, 2197-2212. 3 μg of membrane protein and 0.8 mg of wheat germ aglutinin coated SPA® (scintillation proximity assay) beads (Amersham Biosciences GE Healthcare, Slough, UK) per data point were mixed with radio-labeled (3H) citalopram (Amersham Biosciences GE Healthcare, Slough, UK) until a final concentration of 3.3 nM in 50 mM Tris-HCl, 300 mM NaCl (pH 7.4). After incubation for 18 hours at room temperature, the bound citalopram was quantified by liquid scintillation counting.
(§1) The effect of the coumarin ethers of formula I on the serotonin uptake and the citalopram binding was determined by its inclusion in the assay at a range of concentrations between 0.03 and 100 μM for 10 minutes prior to and during the addition of (3H) serotonin/citalopram. Serotonin uptake via the transporter and citalopram binding were both inhibited by the coumarin ethers of formula I in a dose dependent manner. The calculated inhibition constants Ki, derived from the measured IC50 using the Cheng—Prusoff equation (Y. C. Cheng, W. H. Prusoff, Biochem. Pharmacol. 1973, 22, p. 3099-3108), for inhibition of serotonin uptake and citalopram binding by coumarin ethers of the formula I are shown in Table 1.

[2] = target: T1, human serotonin re-uptake transporter (hSERT); assay: Serotonin uptake inhibition in HEK-293 cells stably expressing hSERT; assay type: cell-based
Method: HEK-293 cells stably expressing the human serotonin re-uptake transporter (hSERT) were obtained from R. Blakely, Vanderbilt University, USA. The cells were routinely grown in Dulbeco's Modified Eagles Medium, purchased from Bioconcept, Allschwil, Switzerland containing 10% fetal calf serum, penicillin, streptomycin, L-glutamine and the antibiotic G418 and passaged by trypsinisation. 1 day prior to the assay cells were seeded in the above mentioned medium. Immediately prior to the assay the medium was replaced by Krebs Ringers bicarbonate buffer, purchased from Sigma Chemicals Ltd., supplemented with 35 μM pargyline, 2.2 mM CaCl2, 1 mM ascorbic acid and 5 mM N-2-hydroxyethylpiperazine-N′-2-ethanesulfonic acid (buffer called “Hepes”). Serotonin uptake into the cells was determined by addition of radio-labeled (3H) serotonin (Amersham Biosciences GE Healthcare, Slough, UK) to a concentration of 20 nM, and incubation for 30 minutes at room temperature. Following removal of unincorporated label by gentle washing three times with the above buffer, incorporated serotonin was quantified by liquid scintillation counting.
as §1

[3] = hSERT containing membranes, Ki from IC50 by Cheng-Prusoff, 3.3 nM (3H) citalopram, read-out: Inhibition constant Ki for tritiated citalopram displacement
[4] = transfected HEK-293 cells, Ki from IC50 by Cheng-Prusoff, 20 nM (3H) serotonin, read-out: Inhibition constant Ki for tritiated serotonin uptake

## CNCCC(Oc1ccc(C(F)(F)F)cc1)c1ccccc1 (stereo not drawn) [fluoxetine, reference compound]
mice; 32 mg/kg i.p. −30 min, 32 mg/kg
  number of marbles covered by sawdust, % change from control: −98%
mice; 32 mg/kg i.p. −30 min
  number of marbles covered by sawdust, mean ± s.e.m.: 0.3 ± 0.2
mice; 32 mg/kg i.p. −30 min, listed as Fluoxetine, 32 mg/kg
  number of marbles covered by sawdust, % change from control: −98%

## CC(C)=CCC/C(C)=C/COc1ccc2ccc(=O)oc2c1 [7-Geranyloxycoumarin, 7-geranyloxycoumarin]
[1]; [3]
  Ki: 24.2 µM
[2]; [4]
  Ki: 22.4 µM
mice; 3 mg/kg i.p. −30 minutes, 3 mg/kg
  number of marbles covered by sawdust, % change from control: −27%
mice; 3 mg/kg i.p. −30 minutes
  number of marbles covered by sawdust, mean ± s.e.m.: 13.4 ± 2.0
mice; 3 mg/kg i.p. −30 minutes, listed as 7-Geranyl-oxycoumauin, 3 mg/kg
  number of marbles covered by sawdust, % change from control: −27%
mice; 10 mg/kg i.p. −30 minutes, 10 mg/kg
  number of marbles covered by sawdust, % change from control: −39%
mice; 10 mg/kg i.p. −30 minutes
  number of marbles covered by sawdust, mean ± s.e.m.: 11.3 ± 2.4
mice; 10 mg/kg i.p. −30 minutes, listed as 7-Geranyl-oxycoumauin, 10 mg/kg
  number of marbles covered by sawdust, % change from control: −39%
mice; 30 mg/kg i.p. −30 minutes, 30 mg/kg
  number of marbles covered by sawdust, % change from control: −74%
mice; 30 mg/kg i.p. −30 minutes
  number of marbles covered by sawdust, mean ± s.e.m.: 4.7 ± 1.5
mice; 30 mg/kg i.p. −30 minutes, listed as 7-Geranyl-oxycoumauin, 30 mg/kg
  number of marbles covered by sawdust, % change from control: −74%

## COc1cc2oc(=O)ccc2cc1CC=C(C)C [Suberosin, suberosin]
[1]; [3]
  Ki: 39.3 µM
[2]; [4]
  Ki: 9.8 µM

## CC1(C)C=Cc2cc3ccc(=O)oc3cc2O1 [Xanthyletin, xanthyletin]
[1]; [3]
  Ki: 11.9 µM
[2]; [4]
  Ki: 20.2 µM

## C/C(=C\COc1ccc2ccc(=O)oc2c1)CCC(=O)C(C)(C)O [6′-Dehydromarmin, 6′-dehydromarmin]
[1]; [3]
  Ki: 10.3 µM
[2]; [4]
  Ki: 12.1 µM

## CC(=O)OC(C)(C)[C@@H]1Cc2c(ccc3ccc(=O)oc23)O1 [(S)—O-Acetylcolumbianetin]
[1]; [3]
  Ki: 11.6 µM
[2]; [4]
  Ki: 21.7 µM

## C/C(=C\COc1ccc2ccc(=O)oc2c1)C1=CC(=O)C(C)(C)O1 [Geiparvarin, geiparvarin]
[1]
  Ki: 5.6 µM
[2]
  Ki: 7 µM

Reference: patent US8044094B2, “Agents for preventing and treating disorders connected to impaired neurotransmission” (DSM IP Assets B.V., priority 2004, dated 2011)
